Reference: patent US11510917B2, “HIF-stabilization and prevention of hyperoxia-induced neonatal lung disease” (CORNELL UNIVERSITY, priority 2016, dated 2022)

Legend:
[1] = test system: neonatal mice chronically exposed to hyperoxia; assay: Oxygen-induced lung injury, lung airspace analysis (chord length Lm); assay type: in vivo, mouse; settings: for alveolar enlargement, lung histology: 80% O2, 200 mg/kg i.p. intermittent during oxygen supplementation (Example 3); for protection of alveolar size (Lm) against moderate hyperoxia: about 45% O2, 2- and 5-week time points
Excerpt: For this study we utilized a well-defined murine model of CLD using neonatal mice chronically exposed to hyperoxia for 2 weeks followed by normoxia for an additional 3. Timed pregnant mice were monitored hourly. Within hours of birth litters were pooled before being randomly redistributed to the newly delivered mothers. Experiments were begun on newborns at postnatal day 0. Half of the newborn pups were placed in a chamber designed to deliver variable oxygen concentrations (Biospherix Ltd) and set to 80% O2 (HO) and the other half remained in room air (RA) as age-matched controls. Mothers were rotated every 12 hours to prevent death from acute O2 toxicity. Neonatal CD1 mice also referred to as wild-type mice (Charles River), MCD mice (WBB6F1^−W/Wv) and their mast cell competent litter mates WBB6F1-^+/^+ (congenic controls (CC)) (Jackson Laboratories) were exposed to either HO or RA for 2 weeks and then kept in room air (FiO2 of 0.21) an additional 3 weeks for the 5-week time point. Some CD1 mice (HO and RA) were also maintained 18 weeks in room air for the 20-week time point. Survival and weight were monitored daily. All mice (CD1, MCD, and CC) used in this study were healthy at birth and survived until sacrificed. Unless specifically noted as CC or MCD, mouse experiments were performed with CD1 mice.
Oxygen-induced lung injury and lung airspace analysis. A well-defined murine model of CLD, a.k.a. bronchopulmonary dysplasia, using neonatal mice chronically exposed to hyperoxia followed by normoxia was used for our studies. Timed pregnant CD1 mice (Charles River) were monitored hourly. Within hours of birth litters were pooled before being randomly redistributed to the newly delivered mothers. Half of the newborn pups were immediately placed in a chamber designed to deliver variable oxygen concentrations (Biospherix) and set to 80%, 45% or 30% O2 (hyperoxia) and the other half remained in room air. Mothers were rotated every 12 hrs to prevent death from acute O2 toxicity. Newborn pups were exposed to either hyperoxia or room air for 2 weeks. […] Some animals were then kept in room air for an additional 3 weeks or 18 weeks before analysis. Lungs from mice were fixed at a constant inflation pressure of 25 cm H2O in 10% neutral buffered formalin followed by paraffin embedding. Sections (7 μm) were cut and slides of paraffinized tissue sections were deparaffinized, rehydrated, and washed in distilled water. Sections were stained with hematoxylin and eosin to visualize the structure of the lung. The direct method was used for the accurate estimation of the mean linear intercept length (Lm) (chord length) to assess the mean free distance in the alveoli. This method uses a set of random intercepts and calculates Lm from their frequency distribution and provides results on alveolar size distribution and alveolar surface area. […] On average 30-50 non-overlapping 1 mm^2 fields were analyzed for each lung section. Mean chord length of each alveolus (μm) was measured with the areas of approximately 4,000 individual alveoli/mouse measured in sections from room air mice and about 2,000 individual alveoli/mouse were analyzed in lung sections from hyperoxic mice.
The direct method was used for the accurate estimation of the mean linear intercept length (Lm) (chord length) to assess the mean free distance in the alveoli. […] On average 30-50 non-overlapping 1 mm^2fields were analyzed for each lung section and mean chord length of each alveolus (μm) was measured.

[2] = test system: neonatal mice chronically exposed to hyperoxia; assay: Pulmonary function test of lung compliance after neonatal hyperoxia; assay type: in vivo, mouse; settings: 80% neonatal hyperoxia; intermittent treatment
Method: Pulmonary function tests (PFTs) were performed in 5- (CD1, MCD and CC) and 20-week old mice (CD1) post-neonatal HO or RA. Briefly, mice were anaesthetized with pentobarbital (100 mg/kg, intraperitoneal; American Pharmaceutical Partners), tracheostomized and mechanically ventilated at a rate of 150 breaths/min, a tidal volume of 10 ml/kg and positive end-expiratory pressure of 2-3 cm H2O using a computer-controlled animal ventilator (Sireq). The following perturbations were used to assess baseline respiratory mechanics and analyzed using Flexivent software (Sireq). Static lung compliance (Cst) was determined using the Salazar-Knowles equation applied to the plateau pressure measurements obtained between total lung capacity and functional residual capacity. Broadband forced oscillations were applied to determine tissue resistance (R) and Newtonian (airway) resistance (Rn) using a constant phase model. Mice used for measuring pulmonary function were not used for histological analyses.

HIF PHD = assay: luc-ODD luciferase reporter, live imaging and organ lysates; assay type: in vivo, mouse
Method: Detection of luc-ODD luciferase reporter in vivo and in vitro. Live imaging of luciferase activity was performed using Bruker Xtreme small animal x-ray, fluorescence bioluminescence imaging system. Luc-ODD mouse pups at 12 days of age (P12) were divided into appropriate experimental groups identified by ear notches and treated according to the experimental design, i.e., various length of pharmacological treatment (0, 3, 9, 24 hrs), or route of administration (intraperitoneal vs subcutaneous for 3 hrs). […] Ten minutes later, pups (in groups of 2 to 4) were placed in an imaging chamber supplied with a heated pad and inhalation cones for oxygen/isofurane mixture. Ventral and dorsal bioluminescent images were collected for 30 sec followed by white light images taken at autoexposure time. Light and luminescent images where then superimposed and quantitatively analyzed using Bruker MI v7 software. Luciferase activity in mouse organs was detected as follows. […] Tissues were placed in Glo Lysis Buffer (Promega), homogenized with disposable plastic pestles fitted to 1.5 mL microtubes on ice and centrifuged at 20,000×g, 4° C., for 15 min. Protein concentrations of tissue extracts were determined using BCA Protein Assay (Thermo Sci), adjusted to 150 ug (retina), 300 ug (kidney, spleen, lung) or 600 ug (brain, liver) per assay reaction by diluting with Glo Lysis Buffer in a total volume of 100 uL and placed in the wells of white opaque 96-well plate. Diluted extracts were then brought to room temperature, mixed with equal volume (100 uL) of ready-to-use luciferase substrate Bright-Glo Luciferase Assay System (Promega) and luminescence was measured immediately by a luminometer/fluorimeter Victor X2 (PerkinElmer).

HIF-1α = assay: Western blot of HIF-1α protein in mouse organs; assay type: in vivo
Mast cells = assay: Mast cell protease (tryptase, chymase) abundance by Western blot; assay type: cell-based; settings: high oxygen (80%)
Excerpt: FIG. 14. […] Mast cells express tryptase and chymase. […] N=4 separate blots, different samples. Aliquots of purified TA and HMC-1 exosomes were homogenized and the protein amounts determined by Lowry assay. Primary antibodies used were: mouse monoclonal TSG 101 (Santa Cruz sc-7964) at 1:500 dilution, mouse monoclonal Alix (Cell Signaling, 2171) at 1:1000 dilution, rabbit polyclonal CD63 (Santa Cruz, sc-15363) at 1:500 dilution, rabbit polyclonal chymase at a 1:2500 dilution (Abcam, 186417), mouse monoclonal mast cell tryptase (Abcam, ab2378) at 1:3000 dilution, rabbit polyclonal elastase (Abcam, ab68672) at 1:1000 dilution, mouse monoclonal mast cell CPA3 (Abcam, ab72575) at 1:500 dilution, and mouse monoclonal GAPDH (Cell Signaling, 14C10) and β-actin (Cell Signaling, 3700) at 1:100,000 dilution. GAPDH and β-actin were used as loading controls.

Hep3B cells = assay: HIF-1α stabilization and EPO expression in cultured hepatoma cells; assay type: cell-based, human
lung mast cells = assay: Lung mast cell number after neonatal hyperoxia; assay type: in vivo, mouse; settings: 10 mg/kg, 5-week time point
Excerpt: Lungs from mice (CD1, MCD and CC), not undergoing pulmonary function testing, were fixed at a constant inflation pressure of 25 cm H2O in 10% neutral buffered formalin followed by paraffin embedding. Slides with 7 μm sections were deparaffinized, rehydrated, and washed in distilled water. Some sections were stained with hematoxylin and eosin (H&E) to visualize the structure of the lung. Other sections were stained with an antibody (CC10) (Santa Cruz Biotechnology) (1:50 dilution) to detect club cells, a cell type specific to the airways. Analysis on the alveolar space deliberately avoided airways and blood vessels. For each animal, 5 lung sections were analyzed and quantified as cells per mm^2 of lung tissue. Mast cells were detected in fixed tissue using either the glycoprotein avidin, conjugated to the enzyme horseradish peroxidase (HRP) (Vector Laboratories) or toluidine blue, the classic metachromatic stain for mast cells. Conjugated avidin is a well-defined histochemical method for identifying rodent and human mast cells, which express chondroitin sulfate E proteoglycans and heparin proteoglycans, respectively, in the secretory granules, binding specifically to the proteoglycan granules. Non-specific staining of biotin or biotin-like molecules previously reported […]. Deparaffinized sections were exposed to avidin-HRP 1:500. […]

EPO = assay: ELISA of serum EPO; assay type: in vivo, mouse
[3] = kidney and liver, single i.p. injection

Row | SMILES | alveolar enlargement, lung histology [1] | lung compliance [2] | duration of HIF PHD inhibition (HIF PHD; [3]) | half-life of HIF PHD inhibition (HIF PHD; [3]) [h] | organs with highest luminescence (HIF PHD; luc-ODD mouse, ventral and dorsal views, i.p. or s.c. injection) | luciferase activity over baseline (HIF PHD; tissue lysates, liver) [fold] | alveolar size by chord length (Lm) ([1]; 80% O2 first 2 weeks then 3 weeks room air, 10 mg/kg s.c. intermittent, CD1 pups, 5-week time point, 10 mg/kg) | protection of alveolar size (Lm) against moderate hyperoxia ([1]; CD1 pups) | protection of alveolar size (Lm) against moderate hyperoxia ([1]; CD1 pups, listed as RXD) | increase of HIF-1α protein (HIF-1α; liver and kidney) | increase of HIF-1α protein (HIF-1α; spleen, lung, brain, and retina) | hyperoxia-induced tryptase and chymase abundance (Mast cells) | hyperoxia-induced tryptase and chymase abundance (Mast cells; listed as RXD) | HIF-1α stabilization and expression of EPO mRNA and protein (Hep3B cells) | lung mast cell increase (lung mast cells; moderate (45%) hyperoxia) | lung mast cell increase (lung mast cells; severe (80%) hyperoxia) | time of maximal increase in serum erythropoietin (EPO) (EPO; after i.p. injection) [h] | dose of maximal effect, serum EPO as marker of HIF-1 activity (EPO; dose response in the mouse) [mg/kg bodyweight] | increase in serum EPO protein concentration (EPO; i.p. 10 mg/kg, P8 pups) [fold]
1 | COC(=O)CNC(=O)C(=O)OC [DMOG, N-(2-Methoxy-2-oxaoacetyl)glycine methyl ester] | normalizes alveolar enlargement | maintains normal lung compliance |  |  |  |  |  |  |  |  |  |  |  |  |  |  |  |  | 
2 | Cc1nc(C(=O)NCC(=O)O)c(O)c2ccc(Oc3ccccc3)cc12 [Roxadustat, N-[(4-hydroxy-1-methyl-7-phenoxyisoquinolin-3-yl)carbonyl]glycine] | reduced |  | at least 24 hours | 48 to 72 | liver and kidney | 6 | statistically significant normalization in alveolar size | statistically significant normalization in alveolar size | protective | 5-10 fold | two-fold increase | decreases | decreased | can be recapitulated | prevents the increase in mast cells | prevents the increase in mast cells | 6 | 10 | 8
